Measurements published in patent US8598118B2, “Hepatocyte growth factor mimics as therapeutic agents” (Washington State University, priority 2011, dated 2013).
“And” between values parts separate entries of the source, which are not always exact repeats. Equal entries are not always repeated.

What was measured:
hippocampal neurons [1] = test: Spinogenesis in mRFP-β-actin transfected dissociated hippocampal neurons; type: cell-based, rat; conditions: 5 days
Description: (§1) Hippocampal neurons (2×10^5 cells per square cm) were cultured from P1 Sprague Dawley rats on plates coated with poly-L-lysine from Sigma (St. Louis, Mo.; molecular weight 300,000). Hippocampal neurons were maintained in Neurobasal A media from Invitrogen (Carlsbad, Calif.) supplemented with B27 from Invitrogen, 0.5 mM L-glutamine, and […] cytosine-D-arabinofuranoside from Sigma added at 2 days in vitro. Hippocampal neurons were then cultured a further 3-7 days, at which time they were either transfected or treated with various pharmacological reagents as described in (Wayman, Davare et al. 2008).
(§2) Neurons were transfected with mRFP-β-actin on day in vitro 6 (DIV6) using LipofectAMINE™ 2000 (Invitrogen) according to the manufacturer's protocol. This protocol yielded the desired 3-5% transfection efficiency thus enabling the visualization of individual neurons. Higher efficiencies obscured the dendritic arbor of individual neurons. Expression of fluorescently tagged actin allowed clear visualization of dendritic spines, as dendritic spines are enriched in actin. On DIV7 the cells were treated with vehicle (H20) or peptides (as described in the text) added to media. On DIV 12 the neurons were fixed (4% paraformaldehyde, 3% sucrose, 60 mM PIPES, 25 mM HEPES, 5 mM EGTA, 1 mM MgCl2, pH 7.4) for 20 min at room temperature and mounted. Slides were dried for at least 20 hours at 4° C. and fluorescent images were obtained with Slidebook 4.2 Digital Microscopy Software driving an Olympus IX81 inverted confocal microscope with a 60× oil immersion lens, NA 1.4 and resolution 0.280 μm Dendritic spine density was measured on primary and secondary dendrites at a distance of at least 150 μm from the soma. Five 50 μm long segments of dendrite from at least 10 neurons per data point were analyzed for each data point reported. Each experiment was repeated at least three times using independent culture preparations. Dendrite length was determined using the National Institutes of Health's Image J 1.41o program (NIH, Bethesda, Md.) and the neurite tracing program Neuron J (Meijering, Jacob et al. 2004) Spines were manually counted.
as §1, with “centimeter)” for “cm)”, “P1-2” for “P1”, “the text or figure legends.” for “(Wayman, Davare et al. 2008).”

hippocampal neurons [2] = test: Whole-cell recordings of AMPA-mediated mEPSCs; type: cell-based, rat; conditions: HGF 10 ng/ml, 5 days (Example 2)
c-Met receptor = target: T1, c-Met receptor (Rattus norvegicus, UniProt P97523); test: Effect of c-Met knock-down (shMet) on spinogenesis in hippocampal neurons; type: cell-based; conditions: HGF 10 ng/ml, 48 hours
T1 construct: Dissociated hippocampal neurons were transfected with mRFP-β-actin and shMet RNA; endogenous in cells; host or cells: dissociated hippocampal neurons from P1-2 Sprague Dawley rats
Text: as §2
A target sequence for c-Met was designed using RNAi central design program (see the website located at cancan.cshl.edu/). […]. The shRNA was transfected into cells using the lipofectamine method described above. Verification of receptor knockdown was done by creating a c-Met-6-Myc tagged gene product using the Gateway cloning system (Invitrogen). […]

T1 sequence (P17945 33-495 partner limits assumed): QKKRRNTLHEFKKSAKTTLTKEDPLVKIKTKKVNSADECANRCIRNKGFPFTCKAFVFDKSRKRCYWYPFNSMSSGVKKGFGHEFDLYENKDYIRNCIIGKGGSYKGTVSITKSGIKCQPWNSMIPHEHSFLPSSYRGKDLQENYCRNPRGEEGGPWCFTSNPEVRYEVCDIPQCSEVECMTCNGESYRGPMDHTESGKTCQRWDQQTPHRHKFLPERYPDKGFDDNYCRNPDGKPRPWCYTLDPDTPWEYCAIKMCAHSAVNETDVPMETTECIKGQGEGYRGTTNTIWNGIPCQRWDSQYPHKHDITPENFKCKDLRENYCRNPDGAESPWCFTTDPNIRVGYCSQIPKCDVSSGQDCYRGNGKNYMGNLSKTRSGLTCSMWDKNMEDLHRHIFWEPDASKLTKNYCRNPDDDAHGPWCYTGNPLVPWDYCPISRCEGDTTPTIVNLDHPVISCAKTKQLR
T1 sequence (P17945 496-728 partner limits assumed): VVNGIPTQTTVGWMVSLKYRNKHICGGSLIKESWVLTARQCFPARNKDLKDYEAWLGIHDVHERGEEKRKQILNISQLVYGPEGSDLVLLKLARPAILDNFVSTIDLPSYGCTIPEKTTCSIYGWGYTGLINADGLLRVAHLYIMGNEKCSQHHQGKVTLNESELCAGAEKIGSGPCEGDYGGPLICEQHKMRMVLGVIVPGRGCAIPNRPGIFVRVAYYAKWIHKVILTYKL
T1 sequence (P97523 25-1382): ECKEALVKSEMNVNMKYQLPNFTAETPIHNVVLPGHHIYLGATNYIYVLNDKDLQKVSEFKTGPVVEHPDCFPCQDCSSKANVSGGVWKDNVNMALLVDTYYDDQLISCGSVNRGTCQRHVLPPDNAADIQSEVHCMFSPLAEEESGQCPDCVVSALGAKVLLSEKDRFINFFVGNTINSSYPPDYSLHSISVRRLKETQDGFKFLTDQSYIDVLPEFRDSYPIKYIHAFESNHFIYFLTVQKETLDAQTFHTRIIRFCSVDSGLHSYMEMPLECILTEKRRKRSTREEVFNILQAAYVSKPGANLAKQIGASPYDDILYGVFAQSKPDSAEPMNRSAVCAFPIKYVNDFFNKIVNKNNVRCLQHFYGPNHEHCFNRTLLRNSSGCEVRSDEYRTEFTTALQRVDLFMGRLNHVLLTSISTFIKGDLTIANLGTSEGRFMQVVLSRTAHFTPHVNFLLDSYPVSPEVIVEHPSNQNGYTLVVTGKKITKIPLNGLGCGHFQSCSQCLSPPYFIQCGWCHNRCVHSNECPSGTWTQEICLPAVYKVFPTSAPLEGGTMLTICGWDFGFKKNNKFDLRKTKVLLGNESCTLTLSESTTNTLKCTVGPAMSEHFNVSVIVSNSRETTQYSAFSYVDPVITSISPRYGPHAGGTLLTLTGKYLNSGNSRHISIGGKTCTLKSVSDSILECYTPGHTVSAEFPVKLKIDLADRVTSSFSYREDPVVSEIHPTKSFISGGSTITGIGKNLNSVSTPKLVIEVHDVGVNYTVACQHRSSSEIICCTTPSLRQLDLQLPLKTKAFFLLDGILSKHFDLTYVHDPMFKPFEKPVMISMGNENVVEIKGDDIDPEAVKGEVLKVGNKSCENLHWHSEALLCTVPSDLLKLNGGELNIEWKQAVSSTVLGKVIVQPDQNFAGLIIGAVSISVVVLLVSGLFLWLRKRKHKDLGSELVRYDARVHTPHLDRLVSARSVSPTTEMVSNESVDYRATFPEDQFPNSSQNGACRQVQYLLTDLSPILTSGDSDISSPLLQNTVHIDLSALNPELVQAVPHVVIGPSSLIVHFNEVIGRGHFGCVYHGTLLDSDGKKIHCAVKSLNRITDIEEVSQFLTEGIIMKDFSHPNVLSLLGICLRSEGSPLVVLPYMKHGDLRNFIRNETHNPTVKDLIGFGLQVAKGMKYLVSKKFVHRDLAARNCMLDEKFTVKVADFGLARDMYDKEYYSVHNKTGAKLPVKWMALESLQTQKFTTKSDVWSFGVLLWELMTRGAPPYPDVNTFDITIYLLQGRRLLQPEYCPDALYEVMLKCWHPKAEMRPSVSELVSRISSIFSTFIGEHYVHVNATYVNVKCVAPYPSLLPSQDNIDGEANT

## HGF: carrier free adult recombinant Hepatocyte Growth Factor (R and D Systems)
Hippocampal neurons [1]; HGF 2.5 ng/ml
  mean spine numbers: 18.6 and 16.5
Hippocampal neurons [1]; HGF 5 ng/ml
  mean spine numbers: 24.7
Hippocampal neurons [1]; HGF 10 ng/ml
  mean spine numbers per 50 μm dendrite length: 27.5 and 33 and 29.3
Hippocampal neurons [1]; HGF 20 ng/ml
  mean spine numbers: 27.0
Hippocampal neurons [2]
  mean frequency of mEPSCs: 7.09±0.53 and 9.66±0.20
c-Met receptor; neurons transfected with mRFP-β-actin alone
  mean spine numbers per 50 μm dendrite length: 20.6
c-Met receptor; neurons transfected with mRFP-β-actin and shMet
  mean spine numbers per 50 μm dendrite length: 12.4
